Test results taken from patent publication US6358885B1, “Substituted phenylheterocyclic herbicides” (Mississippi State University, priority 1992, dated 2002).

Tests used:
Experiment in all cases: Test F preemergence/postemergence greenhouse plant response rating 0 to 100
winter barley = type: in vivo, Hordeum vulgare cv. ‘Igri’; details: POSTEMERGENCE, 0 to 100 scale
Description: (§1) Compounds evaluated in this test were formulated in a non-phytoxic solvent and applied to the soil surface before plant seedlings emerged (preemergence application) and to plants that were in the one-to-four leaf stage (postemergence application). A sandy loam soil was used for the preemergence test while a mixture of sandy loam soil and greenhouse potting mix in a 60:40 ratio was used for the postemergence test. Test compounds were applied within approximately one day after planting seeds for the preemergence test. Plantings of these crops and weed species were adjusted to produce plants of appropriate size for the postemergence test. All plant species were grown using normal greenhouse practices. Crop and weed species include winter barley (Hordeum vulgare cv. ‘Igri’), blackgrass (Alopecurus myosuroides), chickweed (Stellaria media), downy brome (Bromus tectorum), field violet (Viola arvensis), galium (Galium aparine), green foxtail (Setaria viridis), kochia (Kochia scoparia), lambsquarters (Chenopodium album), speedwell (Veronica persica), rape (Brassica napus), ryegrass (Lolium multiflorum), sugar beet (Beta vulgaris cv. ‘USl’), sunflower (Helianthus annuus cv. ‘Russian Giant’), spring wheat (Triticum aestivum cv. ‘ERA’), winter wheat (Triticum aestivum cv. ‘Talent’), wild buckwheat (Polygonum convolvulus), wild mustard (Sinapis arvensis), wild oat (Avena fatua), and wild radish (Raphanus raphanistrum). Blackgrass, galium and wild oat were treated at two growth stages. […] Treated plants and untreated controls were maintained in a greenhouse for approximately 21 to 28 days, after which all treated plants were compared to untreated controls and visually evaluated. […] A dash response (-) means no test result.

chickweed = type: in vivo, Stellaria media; details: POSTEMERGENCE, 0 to 100 scale
Description: as §1

downy brome = type: in vivo, Bromus tectorum; details: POSTEMERGENCE, 0 to 100 scale
Description: as §1

field violet = type: in vivo, Viola arvensis; details: POSTEMERGENCE, 0 to 100 scale
Description: as §1

galium = type: in vivo, Galium aparine; details: POSTEMERGENCE, 0 to 100 scale; for Galium (1) plant response rating: stage (1) two to three leaves; for Galium (2) plant response rating: stage (2) approximately four leaves or initial tillering
Description: as §1

kochia = type: in vivo, Kochia scoparia; details: POSTEMERGENCE, 0 to 100 scale
Description: as §1

lambsquarters = type: in vivo, Chenopodium album; details: POSTEMERGENCE, 0 to 100 scale
Description: as §1

ryegrass = type: in vivo, Lolium multiflorum; details: POSTEMERGENCE, 0 to 100 scale
Description: as §1

sunflower = type: in vivo, Helianthus annuus cv. ‘Russian Giant’; details: POSTEMERGENCE, 0 to 100 scale
Description: as §1

spring wheat = type: in vivo, Triticum aestivum cv. ‘ERA’; details: POSTEMERGENCE, 0 to 100 scale
Description: as §1

winter wheat = type: in vivo, Triticum aestivum cv. ‘Talent’; details: POSTEMERGENCE, 0 to 100 scale
Description: as §1

wild mustard = type: in vivo, Sinapis arvensis; details: POSTEMERGENCE, 0 to 100 scale
Description: as §1

wild oat = type: in vivo, Avena fatua; details: POSTEMERGENCE, 0 to 100 scale; for Wild oat (1) plant response rating: stage (1) two to three leaves; for Wild oat (2) plant response rating: stage (2) approximately four leaves or initial tillering
Description: as §1

wild radish = type: in vivo, Raphanus raphanistrum; details: POSTEMERGENCE, 0 to 100 scale
Description: as §1

Structure (SMILES): C#CC(C)Oc1cc(-c2nn3c(c2Cl)CCCC3)c(F)cc1Cl (stereo not shown) [Compound 36]
- Winter Barley plant response rating (winter barley; Rate 4 g/ha): 20
- Winter Barley plant response rating (winter barley; Rate 8 g/ha): 20
- Winter Barley plant response rating (winter barley; Rate 16 g/ha): 20
- Winter Barley plant response rating (winter barley; Rate 32 g/ha): 25
- Chickweed plant response rating (chickweed; Rate 4 g/ha): 50
- Chickweed plant response rating (chickweed; Rate 8 g/ha): 100
- Chickweed plant response rating (chickweed; Rate 16 g/ha): 100
- Chickweed plant response rating (chickweed; Rate 32 g/ha): 100
- Downy brome plant response rating (downy brome; Rate 4 g/ha): 0
- Downy brome plant response rating (downy brome; Rate 8 g/ha): 0
- Downy brome plant response rating (downy brome; Rate 16 g/ha): 0
- Downy brome plant response rating (downy brome; Rate 32 g/ha): 5
- Field violet plant response rating (field violet; Rate 4 g/ha): 100
- Field violet plant response rating (field violet; Rate 8 g/ha): 100
- Field violet plant response rating (field violet; Rate 16 g/ha): 100
- Field violet plant response rating (field violet; Rate 32 g/ha): 100
- Galium (1) plant response rating (galium; Rate 4 g/ha): 20
- Galium (2) plant response rating (galium; Rate 4 g/ha): 40
- Galium (1) plant response rating (galium; Rate 8 g/ha): 50
- Galium (2) plant response rating (galium; Rate 8 g/ha): 60
- Galium (1) plant response rating (galium; Rate 16 g/ha): 50
- Galium (2) plant response rating (galium; Rate 16 g/ha): 60
- Galium (1) plant response rating (galium; Rate 32 g/ha): 60
- Galium (2) plant response rating (galium; Rate 32 g/ha): 70
- Kochia plant response rating (kochia; Rate 4 g/ha): 20
- Kochia plant response rating (kochia; Rate 8 g/ha): 60
- Kochia plant response rating (kochia; Rate 16 g/ha): 60
- Kochia plant response rating (kochia; Rate 32 g/ha): 100
- Lambsquarters plant response rating (lambsquarters; Rate 4 g/ha): 50
- Lambsquarters plant response rating (lambsquarters; Rate 8 g/ha): 50
- Lambsquarters plant response rating (lambsquarters; Rate 16 g/ha): 60
- Lambsquarters plant response rating (lambsquarters; Rate 32 g/ha): 60
- Ryegrass plant response rating (ryegrass; Rate 4 g/ha): 0
- Ryegrass plant response rating (ryegrass; Rate 8 g/ha): 10
- Ryegrass plant response rating (ryegrass; Rate 16 g/ha): 20
- Ryegrass plant response rating (ryegrass; Rate 32 g/ha): 35
- Sunflower plant response rating (sunflower; Rate 4 g/ha): 0
- Sunflower plant response rating (sunflower; Rate 8 g/ha): 40
- Sunflower plant response rating (sunflower; Rate 16 g/ha): 50
- Sunflower plant response rating (sunflower; Rate 32 g/ha): 60
- Wheat (Spring) plant response rating (spring wheat; Rate 4 g/ha): 15
- Wheat (Spring) plant response rating (spring wheat; Rate 8 g/ha): 15
- Wheat (Spring) plant response rating (spring wheat; Rate 16 g/ha): 15
- Wheat (Spring) plant response rating (spring wheat; Rate 32 g/ha): 20
- Wheat (Winter) plant response rating (winter wheat; Rate 4 g/ha): 20
- Wheat (Winter) plant response rating (winter wheat; Rate 8 g/ha): 20
- Wheat (Winter) plant response rating (winter wheat; Rate 16 g/ha): 20
- Wheat (Winter) plant response rating (winter wheat; Rate 32 g/ha): 50
- Wild mustard plant response rating (wild mustard; Rate 4 g/ha): 100
- Wild mustard plant response rating (wild mustard; Rate 8 g/ha): 100
- Wild mustard plant response rating (wild mustard; Rate 16 g/ha): 100
- Wild mustard plant response rating (wild mustard; Rate 32 g/ha): 100
- Wild oat (1) plant response rating (wild oat; Rate 4 g/ha): 10
- Wild oat (2) plant response rating (wild oat; Rate 4 g/ha): 10
- Wild oat (1) plant response rating (wild oat; Rate 8 g/ha): 20
- Wild oat (2) plant response rating (wild oat; Rate 8 g/ha): 10
- Wild oat (1) plant response rating (wild oat; Rate 16 g/ha): 20
- Wild oat (2) plant response rating (wild oat; Rate 16 g/ha): 20
- Wild oat (1) plant response rating (wild oat; Rate 32 g/ha): 20
- Wild oat (2) plant response rating (wild oat; Rate 32 g/ha): 20
- Wild radish plant response rating (wild radish; Rate 4 g/ha): 100
- Wild radish plant response rating (wild radish; Rate 8 g/ha): 100
- Wild radish plant response rating (wild radish; Rate 16 g/ha): 100
- Wild radish plant response rating (wild radish; Rate 32 g/ha): 100
